The conditions of assay [1]: QX314 with the addition of surfactants (Kohane, PNAS 2010); cited from earlier work.
The subject of another assay is rat's sciatic nerve. Put plainly: Local anesthetic effect after injection near the rat sciatic nerve (von Frey stimulation; Postural Extensor Thrust for motor function). It is filed as in vivo. Conditions: SD rats, 0.5 mL near sciatic nerve, compounds 20 mmol/mL; for Duration of motor block: Postural Extensor Thrust; for Duration of motor block / Duration of sensory block: levobupivacaine 0.75%, lidocaine 2%; for Local anesthesia onset time: levobupivacaine 0.75% (22 mmol/L), lidocaine 2% (74 mmol/L); for Duration of sensory block: von Frey. As for the experimental part:
Dosage: for lidocaine group, lidocaine was formulated with distilled water into a solution at the concentration of 2% (74 mmol/L); for levobupivacaine group, levobupivacaine was formulated with distilled water into a solution at the concentration of 0.75% (22 mmol/L); the compound of the present invention was formulated with distilled water into a solution at the concentration of […].
The injection volume for each rat was 0.5 mL, which was guided by a nerve locator and injected near the rat's sciatic nerve. Using von Frey stimulator, the rats were stimulated the soles of the feet in the injected side, to observe the effect of local anesthesia. Meanwhile, Postural Extensor Thrust (PET) was used to evaluate the motor function of the rat: the rat was lifted vertically and the hindlimb in the injected side pedaled on the platform of the electronic balance. […] When the limb was completely paralyzed, the reading was the limb's own weight, about 20 g. If the measured value was more than half of the difference between the baseline and the limb weight, the motor function was regarded as recovery, and if the value was […], the motor function was regarded as loss.

Another assay concerns back skin of SD rat. Put plainly: Local anesthetic effect by subcutaneous infiltration (back skin, Von Frey fiber 100 g). It is filed as in vivo. Conditions: SD rats, 0.5 mL subcutaneous in saline; compounds 6 mmol/L, controls 0.75% (22 mmol/L) and 2% (74 mmol/L). The method, then: After the back of SD rat weighing 250-300 g (half female and half male) was shaved and disinfected, a circle with a diameter of about 1.5 cm was drawn on the side of the exposed back, and the circle is divided into 6 equal parts. […] Among the Von Frey fiber yarns, the one with a strength of 100 g was bound to the needle for local skin stimulation. One minute After the drug was injected, the above method was used to stimulate in 6 divisions. […] If back skin contraction was observed, the local anesthetic effect was considered as loss. […] Each compound was tested with 10 rats.

Here are results for 17 molecules from patent publication US20220135526A1, “QUATERNARY AMMONIUM SALT COMPOUND, PREPARATION METHOD THEREFOR AND USE THEREOF” (WEST CHINA HOSPITAL, SICHUAN UNIVERSITY, priority 2019, published 2022).

Molecules are shown by their SMILES.

For the molecule `CC[N+](CC)(CC)CC(=O)Nc1c(C)cccc1C` [QX314], the “duration of local anesthesia” value in assay [1] is reported as “more than 8 hours”.

For `CCCCC[N+](CCCCC)(CCCN1CCCCC1C(=O)Nc1c(C)cccc1C)CC(=O)Nc1c(C)cccc1C.Cl.[Br-]` (stereo not drawn) [Example 10 product], in the assay with rat's sciatic nerve, the “Duration of motor block” value is 19 h, the “Local anesthesia onset time” value turned out to be 3 min and the “Duration of sensory block” value is recorded as 25 h. Moreover, in the assay on back skin of SD rat, the “Duration of local anesthesia (median)” value is given as 56 h and the “Local anesthesia onset time (median)” value is 1 min.

On to `CCCCC[N+](CCCCCCN1CCC1C(=O)Nc1c(C)cccc1C)(CCSCC)CC(=O)Nc1c(C)cccc1C` (stereo not drawn) [Example 63 product], for which, in the assay on rat's sciatic nerve, the “Duration of motor block” value amounted to 14 h, the “Local anesthesia onset time” value was 3 min and the “Duration of sensory block” value turned out to be 64 h. In addition, in the assay with back skin of SD rat, the “Duration of local anesthesia (median)” value is on record as 79 h and the “Local anesthesia onset time (median)” value turned out to be 1 min.

With `CCOCCC[N+](CCCCCCN1CCCCC1C(=O)Nc1c(C)cccc1C)(CCCOCC)CC(=O)Nc1c(C)cccc1C.[Br-]` (stereo not drawn) [Example 22 product], in the assay on rat's sciatic nerve, the “Duration of motor block” value is listed as 15 h, the “Local anesthesia onset time” value is on record as 3 min and the “Duration of sensory block” value came out at 47 h. Also, in the assay with back skin of SD rat, the “Duration of local anesthesia (median)” value amounted to 63 h and the “Local anesthesia onset time (median)” value came out at 2 min.

As to `CCCCC[N+](CCCCO)(CCCCCCCN1CCCCCC1C(=O)Nc1c(C)cccc1C)CC(=O)Nc1c(C)cccc1C` (stereo not drawn) [Example 26 product], in the assay with rat's sciatic nerve, the “Duration of motor block” value was found to be 16 h, the “Local anesthesia onset time” value worked out at 5 min and the “Duration of sensory block” value is listed as 45 h. For the same molecule, in the assay with back skin of SD rat, the “Duration of local anesthesia (median)” value is on record as 92 h and the “Local anesthesia onset time (median)” value was 3 min.

As for `CCCCCCCC[N+](CCCCCCC)(CCCN1CCCCC1C(=O)Nc1c(C)cccc1C)CC(=O)Nc1c(C)cccc1C` (stereo not drawn) [Example 74 product], in the assay with rat's sciatic nerve, the “Duration of motor block” value worked out at 17 h, the “Local anesthesia onset time” value came to 1 min and the “Duration of sensory block” value amounted to 72 h. In the assay on back skin of SD rat, the “Duration of local anesthesia (median)” value was 56 h and the “Local anesthesia onset time (median)” value is recorded as 1 min.

On to `CCOCC[N+](CCCCO)(CCCCCCN1CCCCC1C(=O)Nc1c(C)cccc1C)CC(=O)Nc1c(C)cccc1C` (stereo not drawn) [Example 35 product], for which, in the assay on rat's sciatic nerve, the “Duration of motor block” value was found to be 13 h, the “Local anesthesia onset time” value is given as 2 min and the “Duration of sensory block” value stood at 54 h. In the assay with back skin of SD rat, the “Duration of local anesthesia (median)” value was 92 h and the “Local anesthesia onset time (median)” value came out at 2 min.

For the molecule `CCCCC[N+](CCCCC)(CCCN1CCCCC1C(=O)Nc1c(C)cccc1C)CC(=O)Nc1c(C)cccc1C` (stereo not drawn) [Example 1 product], in the assay with rat's sciatic nerve, the “Duration of motor block” value was found to be 21 h, the “Local anesthesia onset time” value is on record as 3 min and the “Duration of sensory block” value turned out to be 32 h. In addition, in the assay with back skin of SD rat, the “Duration of local anesthesia (median)” value is on record as 25 h and the “Local anesthesia onset time (median)” value was found to be 1 min.

For `Cc1cccc(C)c1NC(=O)C[N+]1(CCCCCCN2CCCCC2C(=O)Nc2c(C)cccc2C)CCOCC1` (stereo not drawn) [Example 52 product], in the assay with rat's sciatic nerve, the “Duration of motor block” value was 15 h, the “Local anesthesia onset time” value is 2 min and the “Duration of sensory block” value is 56 h. Besides, in the assay on back skin of SD rat, the “Duration of local anesthesia (median)” value amounted to 85 h and the “Local anesthesia onset time (median)” value stood at 3 min.

Turning to `CCCCC[N+](CCCCS)(CCCCCCCN1CCCCCC1C(=O)Nc1c(C)cccc1C)CC(=O)Nc1c(C)cccc1C` (stereo not drawn) [Example 69 product], in the assay with rat's sciatic nerve, the “Duration of motor block” value is 10 h, the “Local anesthesia onset time” value is given as 1 min and the “Duration of sensory block” value is given as 62 h. For the same molecule, in the assay on back skin of SD rat, the “Duration of local anesthesia (median)” value was determined as 80 h and the “Local anesthesia onset time (median)” value is on record as 1 min.

Take `CCCCCCC[N+](CCCCC)(CCOCCN1CCCCC1C(=O)Nc1c(C)cccc1C)CC(=O)Nc1c(C)cccc1C` (stereo not drawn) [Example 76 product]: in the assay with rat's sciatic nerve, the “Duration of motor block” value worked out at 14 h, the “Local anesthesia onset time” value amounted to 3 min and the “Duration of sensory block” value is on record as 59 h. In the assay on back skin of SD rat, the “Duration of local anesthesia (median)” value worked out at 64 h and the “Local anesthesia onset time (median)” value worked out at 2 min.

Consider `Cc1cccc(C)c1NC(=O)C[N+]1(CCCCCCN2CCCCC2C(=O)Nc2c(C)cccc2C)CCOC(C)C1` (stereo not drawn) [Example 54 product], for which, in the assay on rat's sciatic nerve, the “Duration of motor block” value turned out to be 15 h, the “Local anesthesia onset time” value was 5 min and the “Duration of sensory block” value is 66 h. Moreover, in the assay on back skin of SD rat, the “Duration of local anesthesia (median)” value was 69 h and the “Local anesthesia onset time (median)” value is reported as 2 min.

For `CCCOCCCC[N+](CCCCCC(=O)O)(CCCSCCCN1CCCCC1C(=O)Nc1c(C)cccc1C)CC(=O)Nc1c(C)cccc1C` (stereo not drawn) [Example 29 product], in the assay on rat's sciatic nerve, the “Duration of motor block” value is listed as 15 h, the “Local anesthesia onset time” value is reported as 5 min and the “Duration of sensory block” value is listed as 50 h. For the same molecule, in the assay with back skin of SD rat, the “Duration of local anesthesia (median)” value came to 73 h and the “Local anesthesia onset time (median)” value is 2 min.

As to `CCCCC[N+](CO)(CCCCCCN1CCCCC1C(=O)Nc1c(C)cccc1C)CC(=O)Nc1c(C)cccc1C.[Br-]` (stereo not drawn) [Example 15 product], in the assay on rat's sciatic nerve, the “Duration of motor block” value was 16 h, the “Local anesthesia onset time” value turned out to be 5 min and the “Duration of sensory block” value is 44 h. Also, in the assay on back skin of SD rat, the “Duration of local anesthesia (median)” value amounted to 73 h and the “Local anesthesia onset time (median)” value is given as 4 min.

With `Cc1cccc(C)c1NC(=O)C[N+](CCO)(CCCCO)CCCCCCN1CCCC1C(=O)Nc1c(C)cccc1C` (stereo not drawn) [Example 60 product], in the assay on rat's sciatic nerve, the “Duration of motor block” value is on record as 20 h, the “Local anesthesia onset time” value stood at 1 min and the “Duration of sensory block” value came out at 54 h. In the assay on back skin of SD rat, the “Duration of local anesthesia (median)” value was determined as 66 h and the “Local anesthesia onset time (median)” value was determined as 2 min.

Turning to `CCCCC[N+](CCCS)(CCCCCCCCN1CCCCCCC1C(=O)Nc1c(C)cccc1C)CC(=O)Nc1c(C)cccc1C` (stereo not drawn) [Example 57 product], in the assay with rat's sciatic nerve, the “Duration of motor block” value is 13 h, the “Local anesthesia onset time” value was 5 min and the “Duration of sensory block” value is 69 h. Further, in the assay with back skin of SD rat, the “Duration of local anesthesia (median)” value amounted to 85 h and the “Local anesthesia onset time (median)” value is 1 min.

Take `CCCCC[N+](CCCCCO)(CCCCCCN1CCCCC1C(=O)Nc1c(C)cccc1C)CC(=O)Nc1c(C)cccc1C.[Br-]` (stereo not drawn) [Example 12 product]: in the assay with rat's sciatic nerve, the “Duration of motor block” value is 11 h, the “Local anesthesia onset time” value came out at 5 min and the “Duration of sensory block” value is given as 42 h. Besides, in the assay on back skin of SD rat, the “Duration of local anesthesia (median)” value was found to be 66 h and the “Local anesthesia onset time (median)” value turned out to be 3 min.
